# According to patent US9944602B2, “Piperidinone herbicides” (E. I. DU PONT DE NEMOURS AND COMPANY, priority 2014, dated 2018):
# Columns and labels:
# Format in all cases: in vivo
# [1] = tested on: barnyardgrass (Echinochloa crus-galli); assay: Test A preemergence barnyardgrass; conditions: 0 to 100 scale, 0 no effect, 100 complete control
# Method in brief: (§1)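 Injury was scored by eye on a 0 to 100 scale after about 10 days in the greenhouse, with 100 meaning complete control. Preemergence treatment was a directed spray onto soil over seeds; postemergence treatment went onto one- to two-leaf plants 2–10 cm tall.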
# [2] = tested on: kochia (Kochia scoparia); assay: Test A preemergence kochia; conditions: 0 to 100 scale, 0 no effect, 100 complete control
# Method in brief: as §1
# [3] = tested on: ragweed (common ragweed, Ambrosia elatior); assay: Test A preemergence ragweed; conditions: 0 to 100 scale, 0 no effect, 100 complete control
# Method in brief: as §1
# [4] = tested on: ryegrass, Italian (Italian ryegrass, Lolium multiflorum); assay: Test A preemergence ryegrass, Italian; conditions: 0 to 100 scale, 0 no effect, 100 complete control
# Method in brief: as §1
# [5] = tested on: foxtail, giant (giant foxtail, Setaria faberii); assay: Test A preemergence foxtail, giant; conditions: 0 to 100 scale, 0 no effect, 100 complete control
# Method in brief: as §1
# [6] = tested on: pigweed (Amaranthus retroflexus); assay: Test A preemergence pigweed; conditions: 0 to 100 scale, 0 no effect, 100 complete control
# Method in brief: as §1
# [7] = tested on: barnyardgrass (Echinochloa crus-galli); assay: Test A postemergence barnyardgrass; conditions: 0 to 100 scale, 0 is no effect, 100 is complete control
# Method in brief: as §1
# [8] = tested on: kochia (Kochia scoparia); assay: Test A postemergence kochia; conditions: 0 to 100 scale, 0 is no effect, 100 is complete control
# Method in brief: as §1
# [9] = tested on: ragweed (common ragweed, Ambrosia elatior); assay: Test A postemergence ragweed; conditions: 0 to 100 scale, 0 is no effect, 100 is complete control
# Method in brief: as §1
# [10] = tested on: ryegrass, Italian (Italian ryegrass, Lolium multiflorum); assay: Test A postemergence ryegrass, Italian; conditions: 0 to 100 scale, 0 is no effect, 100 is complete control
# Method in brief: as §1
# [11] = tested on: foxtail, giant (giant foxtail, Setaria faberii); assay: Test A postemergence foxtail, giant; conditions: 0 to 100 scale, 0 is no effect, 100 is complete control
# Method in brief: as §1
# [12] = tested on: pigweed (Amaranthus retroflexus); assay: Test A postemergence pigweed; conditions: 0 to 100 scale, 0 is no effect, 100 is complete control
# Method in brief: as §1
# [13] = tested on: wheat (Triticum aestivum); assay: Test A postemergence wheat; conditions: 0 to 100 scale, 0 is no effect, 100 is complete control
# Method in brief: as §1
# [14] = tested on: corn (Zea mays); assay: Test A postemergence corn; conditions: 0 to 100 scale, 0 is no effect, 100 is complete control
# Method in brief: as §1
# [15] = tested on: blackgrass (Alopecurus myosuroides); assay: Test A postemergence blackgrass; conditions: 0 to 100 scale, 0 is no effect, 100 is complete control
# Method in brief: as §1
# [16] = tested on: galium (catchweed bedstraw, Galium aparine); assay: Test A postemergence galium; conditions: 0 to 100 scale, 0 is no effect, 100 is complete control
# Method in brief: as §1
# [17] = tested on: rice (Oryza sativa); assay: Test B flooded paddy test rice; conditions: Table B, Flood, 250 g ai/ha, scale 0 to 100
# Method in brief: (§2)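 Water-applied paddy treatment: compound dosed into 3 cm flood on 2-leaf plants, read visually versus controls after 13 to 15 d.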
# [18] = tested on: sedge, umbrella (small-flower umbrella sedge, Cyperus difformis); assay: Test B flooded paddy test sedge, umbrella; conditions: Table B, Flood, 250 g ai/ha, scale 0 to 100
# Method in brief: as §2
# [19] = tested on: ducksalad (Heteranthera limosa); assay: Test B flooded paddy test ducksalad; conditions: Table B, Flood, 250 g ai/ha, scale 0 to 100
# Method in brief: as §2
# [20] = tested on: barnyardgrass (Echinochloa crus-galli); assay: Test B flooded paddy test barnyardgrass; conditions: Table B, Flood, 250 g ai/ha, scale 0 to 100
# Method in brief: as §2
SMILES,Barnyardgrass plant response rating ([1]; 125 g ai/ha),Barnyardgrass plant response rating ([1]; 500 g ai/ha),Kochia plant response rating ([2]; 125 g ai/ha),Kochia plant response rating ([2]; 500 g ai/ha),Ragweed plant response rating ([3]; 125 g ai/ha),Ragweed plant response rating ([3]; 500 g ai/ha),"Ryegrass, Italian plant response rating ([4]; 125 g ai/ha)","Ryegrass, Italian plant response rating ([4]; 500 g ai/ha)","Foxtail, Giant plant response rating ([5]; 125 g ai/ha)","Foxtail, Giant plant response rating ([5]; 500 g ai/ha)",Pigweed plant response rating ([6]; 125 g ai/ha),Pigweed plant response rating ([6]; 500 g ai/ha),"Plant response rating, Barnyardgrass ([7]; 125 g ai/ha)","Plant response rating, Barnyardgrass ([7]; 500 g ai/ha)","Plant response rating, Kochia ([8]; 125 g ai/ha)","Plant response rating, Kochia ([8]; 500 g ai/ha)","Plant response rating, Ragweed ([9]; 125 g ai/ha)","Plant response rating, Ragweed ([9]; 500 g ai/ha)","Plant response rating, Ryegrass, Italian ([10]; 125 g ai/ha)","Plant response rating, Ryegrass, Italian ([10]; 500 g ai/ha)",other results
O=C1NCC[C@@H](c2cccc(C(F)(F)F)c2)[C@@H]1C(=O)Nc1cccc(F)c1F [Compound 20],50,90,0,0,0,0,0,0,60,90,0,0,40,80,0,0,0,0,0,20,"Plant response rating, Foxtail, Giant ([11]; 125 g ai/ha): 40; Plant response rating, Foxtail, Giant ([11]; 500 g ai/ha): 80; Plant response rating, Pigweed ([12]; 125 g ai/ha): 0; Plant response rating, Pigweed ([12]; 500 g ai/ha): 0; Plant response rating, Wheat ([13]; 125 g ai/ha): 0; Plant response rating, Wheat ([13]; 500 g ai/ha): 0; Plant response rating, Corn ([14]; 125 g ai/ha): 0; Plant response rating, Corn ([14]; 500 g ai/ha): 20; Plant response rating, Blackgrass ([15]; 125 g ai/ha): 0; Plant response rating, Blackgrass ([15]; 500 g ai/ha): 20; Plant response rating, Galium ([16]; 125 g ai/ha): 0; Plant response rating, Galium ([16]; 500 g ai/ha): 0; Plant response rating [17]: 0; Plant response rating [18]: 0; Plant response rating [19]: 0; Plant response rating [20]: 0"
O=C1NCC[C@@H](c2ccc(C(F)(F)F)cc2)[C@@H]1C(=O)Nc1cccc(F)c1F [Compound 23],30,70,0,40,0,60,0,20,30,80,0,0,20,70,20,50,0,0,0,20,"Plant response rating, Foxtail, Giant ([11]; 125 g ai/ha): 20; Plant response rating, Foxtail, Giant ([11]; 500 g ai/ha): 60; Plant response rating, Pigweed ([12]; 125 g ai/ha): 0; Plant response rating, Pigweed ([12]; 500 g ai/ha): 0; Plant response rating, Wheat ([13]; 125 g ai/ha): 0; Plant response rating, Wheat ([13]; 500 g ai/ha): 20; Plant response rating, Corn ([14]; 125 g ai/ha): 0; Plant response rating, Corn ([14]; 500 g ai/ha): 20; Plant response rating, Blackgrass ([15]; 125 g ai/ha): 0; Plant response rating, Blackgrass ([15]; 500 g ai/ha): 10; Plant response rating, Galium ([16]; 125 g ai/ha): 0; Plant response rating, Galium ([16]; 500 g ai/ha): 20; Plant response rating [17]: 0; Plant response rating [18]: 0; Plant response rating [19]: 0; Plant response rating [20]: 0"
O=C1NCC[C@@H](c2cccc(C(F)(F)F)c2)[C@@H]1C(=O)Nc1cccc(Cl)c1F [Compound 24],50,80,0,0,0,0,0,0,70,80,0,0,50,80,0,0,0,0,0,20,"Plant response rating, Foxtail, Giant ([11]; 125 g ai/ha): 50; Plant response rating, Foxtail, Giant ([11]; 500 g ai/ha): 80; Plant response rating, Pigweed ([12]; 125 g ai/ha): 0; Plant response rating, Pigweed ([12]; 500 g ai/ha): 0; Plant response rating, Wheat ([13]; 125 g ai/ha): 20; Plant response rating, Wheat ([13]; 500 g ai/ha): 30; Plant response rating, Corn ([14]; 125 g ai/ha): 20; Plant response rating, Corn ([14]; 500 g ai/ha): 30; Plant response rating, Blackgrass ([15]; 125 g ai/ha): 0; Plant response rating, Blackgrass ([15]; 500 g ai/ha): 30; Plant response rating, Galium ([16]; 125 g ai/ha): 0; Plant response rating, Galium ([16]; 500 g ai/ha): 0; Plant response rating [17]: 0; Plant response rating [18]: 0; Plant response rating [19]: 0; Plant response rating [20]: 0"
O=C1NCC[C@@H](c2cccc(C(F)(F)F)c2)[C@@H]1C(=O)Nc1ccc(F)c(F)c1F [Compound 29],0,20,0,0,0,0,0,0,0,20,0,0,0,30,0,0,0,0,0,0,"Plant response rating, Foxtail, Giant ([11]; 125 g ai/ha): 0; Plant response rating, Foxtail, Giant ([11]; 500 g ai/ha): 0; Plant response rating, Pigweed ([12]; 125 g ai/ha): 0; Plant response rating, Pigweed ([12]; 500 g ai/ha): 0; Plant response rating, Wheat ([13]; 125 g ai/ha): 0; Plant response rating, Wheat ([13]; 500 g ai/ha): 0; Plant response rating, Corn ([14]; 125 g ai/ha): 0; Plant response rating, Corn ([14]; 500 g ai/ha): 0; Plant response rating, Blackgrass ([15]; 125 g ai/ha): 0; Plant response rating, Blackgrass ([15]; 500 g ai/ha): 0; Plant response rating, Galium ([16]; 125 g ai/ha): 0; Plant response rating, Galium ([16]; 500 g ai/ha): 0; Plant response rating [17]: 0; Plant response rating [18]: 0; Plant response rating [19]: 0; Plant response rating [20]: 0"
O=C1NCC[C@@H](c2cccc(Cl)c2)[C@@H]1C(=O)Nc1cccc(F)c1F [Compound 43],0,0,0,0,0,0,0,0,0,0,0,0,0,0,0,0,0,0,0,0,"Plant response rating, Foxtail, Giant ([11]; 125 g ai/ha): 0; Plant response rating, Foxtail, Giant ([11]; 500 g ai/ha): 0; Plant response rating, Pigweed ([12]; 125 g ai/ha): 0; Plant response rating, Pigweed ([12]; 500 g ai/ha): 0; Plant response rating, Wheat ([13]; 125 g ai/ha): 0; Plant response rating, Wheat ([13]; 500 g ai/ha): 0; Plant response rating, Corn ([14]; 125 g ai/ha): 0; Plant response rating, Corn ([14]; 500 g ai/ha): 0; Plant response rating, Blackgrass ([15]; 125 g ai/ha): 0; Plant response rating, Blackgrass ([15]; 500 g ai/ha): 0; Plant response rating, Galium ([16]; 125 g ai/ha): 0; Plant response rating, Galium ([16]; 500 g ai/ha): 0; Plant response rating [17]: 0; Plant response rating [18]: 0; Plant response rating [19]: 0; Plant response rating [20]: 0"
